In the supplement of paper PMC10307832:

Key:
Test in all cases: relative viability (nuclei count vs DMSO), 5 days (fraction); higher = more cells survive
PC-3 [JPC-3] = test system: PC-3 [JPC-3]
In short: (§1)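 Relative viability divides the nuclei count in treated wells by that in vehicle wells. Lung cancer cell lines were seeded in 1536-well plates, dosed by pin tool the next day, and fixed and stained after 5 days in one step with final 0.05% Triton X-100, 1% formaldehyde and 1 ug/ml Hoechst. Dosing was a single drug or a fixed anchor-drug dose plus five library-drug doses (not always all listed) in √10 steps, and values are medians of duplicate plates imaged at 4×.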

NCI-H441 = test system: NCI-H441
In short: as §1

COR-L23 = test system: COR-L23
In short: as §1

UMC-11 = test system: UMC-11
In short: as §1

NCI-H1755 = test system: NCI-H1755
In short: as §1

NCI-H1734 = test system: NCI-H1734
In short: as §1

EMC-BAC-2 = test system: EMC-BAC-2
In short: as §1

NCI-H1437 = test system: NCI-H1437
In short: as §1

NCI-H3122 = test system: NCI-H3122
In short: as §1

NCI-H596 = test system: NCI-H596
In short: as §1

LK-2 = test system: LK-2
In short: as §1

NCI-H1651 = test system: NCI-H1651
In short: as §1

NCI-H2347 = test system: NCI-H2347
In short: as §1

ABC-1 = test system: ABC-1
In short: as §1

HOP-62 = test system: HOP-62
In short: as §1

RERF-LC-KJ = test system: RERF-LC-KJ
In short: as §1

HARA = test system: HARA
In short: as §1

NCI-H727 = test system: NCI-H727
In short: as §1

SK-LU-1 = test system: SK-LU-1
In short: as §1

NCI-H1650 = test system: NCI-H1650
In short: as §1

HCC-366 = test system: HCC-366
In short: as §1

CN1CCN(CCOc2cc(OC3CCOCC3)c3c(Nc4c(Cl)ccc5c4OCO5)ncnc3c2)CC1 [Saracatinib] + Nc1ncn([C@H]2C[C@H](O)[C@@H](CO)O2)c(=O)n1 [Decitabine] (partner 2 µM)
relative viability (PC-3 [JPC-3]; first compound 0.02 µM): 0.824 | relative viability (PC-3 [JPC-3]; first compound 0.2 µM): 0.711 | relative viability (PC-3 [JPC-3]; first compound 0.6325 µM): 0.695 | relative viability (PC-3 [JPC-3]; first compound 2 µM): 0.555 | relative viability (NCI-H441; first compound 0.02 µM): 0.221 | relative viability (NCI-H441; first compound 0.2 µM): 0.232 | relative viability (NCI-H441; first compound 0.6325 µM): 0.212 | relative viability (NCI-H441; first compound 2 µM): 0.243 | relative viability (COR-L23; first compound 0.02 µM): 0.44 | relative viability (COR-L23; first compound 0.2 µM): 0.385 | relative viability (COR-L23; first compound 0.6325 µM): 0.419 | relative viability (COR-L23; first compound 2 µM): 0.335 | relative viability (UMC-11; first compound 0.02 µM): 0.686 | relative viability (UMC-11; first compound 0.2 µM): 0.667 | relative viability (UMC-11; first compound 0.6325 µM): 0.453 | relative viability (UMC-11; first compound 2 µM): 0.533 | relative viability (NCI-H1755; first compound 0.02 µM): 0.711 | relative viability (NCI-H1755; first compound 0.2 µM): 0.604 | relative viability (NCI-H1755; first compound 0.6325 µM): 0.72 | relative viability (NCI-H1755; first compound 2 µM): 0.691 | relative viability (NCI-H1734; first compound 0.02 µM): 0.524 | relative viability (NCI-H1734; first compound 0.6325 µM): 0.491 | relative viability (NCI-H1734; first compound 2 µM): 0.475 | relative viability (EMC-BAC-2; first compound 0.02 µM): 1.05 | relative viability (EMC-BAC-2; first compound 0.2 µM): 0.922 | relative viability (EMC-BAC-2; first compound 0.6325 µM): 1.02 | relative viability (EMC-BAC-2; first compound 2 µM): 0.91 | relative viability (NCI-H1437; first compound 0.02 µM): 0.608 | relative viability (NCI-H1437; first compound 0.2 µM): 0.601 | relative viability (NCI-H1437; first compound 0.6325 µM): 0.64 | relative viability (NCI-H1437; first compound 2 µM): 0.622 | relative viability (NCI-H3122; first compound 0.02 µM): 0.365 | relative viability (NCI-H3122; first compound 0.2 µM): 0.375 | relative viability (NCI-H3122; first compound 0.6325 µM): 0.314 | relative viability (NCI-H3122; first compound 2 µM): 0.294 | relative viability (NCI-H596; first compound 0.02 µM): 0.912 | relative viability (NCI-H596; first compound 0.2 µM): 0.793 | relative viability (NCI-H596; first compound 0.6325 µM): 0.951 | relative viability (NCI-H596; first compound 2 µM): 0.821 | relative viability (LK-2; first compound 0.02 µM): 0.337 | relative viability (LK-2; first compound 0.2 µM): 0.23 | relative viability (LK-2; first compound 0.6325 µM): 0.172 | relative viability (LK-2; first compound 2 µM): 0.201 | relative viability (NCI-H1651; first compound 0.02 µM): 0.734 | relative viability (NCI-H1651; first compound 0.2 µM): 0.375 | relative viability (NCI-H1651; first compound 0.6325 µM): 0.667 | relative viability (NCI-H1651; first compound 2 µM): 0.626 | relative viability (NCI-H2347; first compound 0.02 µM): 0.629 | relative viability (NCI-H2347; first compound 0.2 µM): 0.538 | relative viability (NCI-H2347; first compound 0.6325 µM): 0.595 | relative viability (NCI-H2347; first compound 2 µM): 0.578 | relative viability (ABC-1; first compound 0.02 µM): 1.01 | relative viability (ABC-1; first compound 0.2 µM): 1.04 | relative viability (ABC-1; first compound 0.6325 µM): 1.06 | relative viability (ABC-1; first compound 2 µM): 1.02 | relative viability (HOP-62; first compound 0.02 µM): 0.222 | relative viability (HOP-62; first compound 0.2 µM): 0.188 | relative viability (HOP-62; first compound 0.6325 µM): 0.197 | relative viability (HOP-62; first compound 2 µM): 0.185 | relative viability (RERF-LC-KJ; first compound 0.02 µM): 0.688 | relative viability (RERF-LC-KJ; first compound 0.2 µM): 0.657 | relative viability (RERF-LC-KJ; first compound 0.6325 µM): 0.734 | relative viability (RERF-LC-KJ; first compound 2 µM): 0.722 | relative viability (HARA; first compound 0.02 µM): 0.605 | relative viability (HARA; first compound 0.2 µM): 0.367 | relative viability (HARA; first compound 0.6325 µM): 0.465 | relative viability (HARA; first compound 2 µM): 0.381 | relative viability (NCI-H727; first compound 0.02 µM): 0.917 | relative viability (NCI-H727; first compound 0.2 µM): 0.894 | relative viability (NCI-H727; first compound 0.6325 µM): 0.992 | relative viability (NCI-H727; first compound 2 µM): 0.712 | relative viability (SK-LU-1; first compound 0.02 µM): 0.546 | relative viability (SK-LU-1; first compound 0.2 µM): 0.526 | relative viability (SK-LU-1; first compound 0.6325 µM): 0.594 | relative viability (SK-LU-1; first compound 2 µM): 0.405 | relative viability (NCI-H1650; first compound 0.02 µM): 0.428 | relative viability (NCI-H1650; first compound 0.2 µM): 0.519 | relative viability (NCI-H1650; first compound 0.6325 µM): 0.431 | relative viability (NCI-H1650; first compound 2 µM): 0.365 | relative viability (HCC-366; first compound 0.02 µM): 0.321 | relative viability (HCC-366; first compound 0.2 µM): 0.148 | relative viability (HCC-366; first compound 0.6325 µM): 0.293 | relative viability (HCC-366; first compound 2 µM): 0.194
